In brackets after ≈: the same amount, converted by molar mass.
Columns and labels:
[1] = tested on: Escherichia coli (ETEC); assay: Agar diffusion method-2 (cell-free solution); format: cell-based; details: colonies as cell-free solution in holes of TSA; ddH2O control 8
Procedure: (§1) Firstly, the CFSs (containing metabolites) were prepared. Besides, when probiotics break down fiber and convert the fiber into metabolites, the metabolites are postbiotics.
(§2) Next, the pathogenic bacteria described above were also cultured with 37° C. until the concentration thereof reached 1×10^8 CFU/mL, respectively. 100 μL bacterial solutions of the pathogenic bacteria described above were evenly plated on Tryptone Soy Agar (TSA) and stay for 10 minutes. Then, tips were used to form several holes in the TSA. Subsequently, 100 μL bacterial solutions of the colonies described above were added into the holes and then cultured at 37° C. for 12 hours.
(§3) This experiment is designed that the CFSs in the holes prevent the pathogenic bacteria on the plates from growing. Therefore, the larger zone indicates the better antibacterial effect.

[2] = tested on: Salmonella enterica; assay: Agar diffusion method-2 (cell-free solution); format: cell-based; details: colonies as cell-free solution in holes of TSA; ddH2O control 8
Procedure: as §1, §2, §3

[3] = tested on: Pseudomonas aeruginosa; assay: Agar diffusion method-2 (cell-free solution); format: cell-based; details: colonies as cell-free solution in holes of TSA; ddH2O control 8
Procedure: as §1, §2, §3

[4] = tested on: Staphylococcus aureus; assay: Agar diffusion method-2 (cell-free solution); format: cell-based; details: colonies as cell-free solution in holes of TSA; ddH2O control 8
Procedure: as §1, §2, §3

[5] = tested on: Bacillus cereus; assay: Agar diffusion method-2 (cell-free solution); format: cell-based; details: colonies as cell-free solution in holes of TSA; ddH2O control 8
Procedure: as §1, §2, §3

[6] = tested on: Shigella sonnei; assay: Agar diffusion method-2 (cell-free solution); format: cell-based; details: colonies as cell-free solution in holes of TSA; ddH2O control 8
Procedure: as §1, §2, §3

[7] = tested on: Streptococcus pneumoniae; assay: Agar diffusion method-2 (cell-free solution); format: cell-based; details: colonies as cell-free solution in holes of TSA; ddH2O control 8
Procedure: as §1, §2, §3

[8] = tested on: Klebsiella pneumoniae; assay: Agar diffusion method-2 (cell-free solution); format: cell-based; details: colonies as cell-free solution in holes of TSA; ddH2O control 8
Procedure: as §1, §2, §3

[9] = tested on: Escherichia coli (ETEC); assay: Minimum inhibitory concentration and minimum bacterial concentration; format: cell-based; details: antibiotics
Procedure: (§4) Minimum inhibitory concentration (MIC) refers to the minimum concentration at which the development of bacteria can be blocked and antibacterial resistance can be observed after cultured. The lower MIC means the better effect on bacteria.
(§5) The supernatants of the cultured colonies described above were collected, as cell-free solutions (CFSs), by centrifuge at 5000 rpm after cultured the colonies in a nutrient broth and shaking at 37° C. for 48 hours.
(§6) Next, 100 μL each of the CFSs and 100 μL bacterial solutions of the pathogenic bacteria were respectively added to each well of a 96-well plate. Thus, the total volume in each well was 200 μL. The tested pathogenic bacteria included Salmonella enterica, Shigella sonnei, Klebsiella pneumoniae, Streptococcus pneumoniae, Bacillus cereus, Staphylococcus aureus, Pseudomonas aeruginosa, and Escherichia coli.
(§7) As well, 100 μL each of the nutrient broth containing Ampicillin or Kanamycin and 100 μL bacterial solutions of the pathogenic bacteria were respectively added to each well of a 96-well plate. Thus, the total volume in each well was 200 μL.
(§8) Then, initial values of OD600 in each well were recorded. Subsequently, the 96-well plates were cultured at 37° C. for 24 hours, and the OD600 values thereof were re-recorded for determining the MICs of each colony described above.
(§9) Finally, 100 μL CFSs of the next three concentrations […] MIC were taken to be plated on nutrient agar and then cultured at 37° C. for 48-72 hours. The concentrations of the CFSs that no colonies grown on nutrient agar were determined to be the minimum bacterial concentration (MBCs).

[10] = tested on: Pseudomonas aeruginosa; assay: as above; format: cell-based; details: antibiotics
Procedure: as §4, §5, §6, §7, §8, §9

[11] = tested on: Staphylococcus aureus; assay: as above; format: cell-based; details: antibiotics
Procedure: as §4, §5, §6, §7, §8, §9

[12] = tested on: Bacillus cereus; assay: as above; format: cell-based; details: antibiotics
Procedure: as §4, §5, §6, §7, §8, §9

[13] = tested on: Shigella sonnei; assay: as above; format: cell-based; details: antibiotics
Procedure: as §4, §5, §6, §7, §8, §9

[14] = tested on: Streptococcus pneumoniae; assay: as above; format: cell-based; details: antibiotics
Procedure: as §4, §5, §6, §7, §8, §9

[15] = tested on: Klebsiella pneumoniae; assay: as above; format: cell-based; details: antibiotics
Procedure: as §4, §5, §6, §7, §8, §9

[16] = tested on: Colony LP5; assay: Antibiotic susceptibility test; format: cell-based, Lactiplantibacillus Plantarum
Text: (§10) To test bacterial susceptibility to antibiotics, such as Aminoglycosides antibiotics, Sulfonamide antibiotics, Quinolone antibiotics, Ampicillin, Cefotaxime, Chloramphenicol, Erythromycin, Rifampicin and Tetracycline, the experimental protocol were as follow. Further, the Quinolone antibiotics comprise Ciprofloxacin, the Aminoglycosides antibiotics comprise Kanamycin and […], and the Sulfonamide antibiotics comprise Sulfamethoxazole. […] The initial absorbance at 600 nm (OD600) of each well was recorded. Then, the 96-well plates were placed at 37° C. and cultured for 24 hours. Next, the OD600 of each well was measured again to determine minimum inhibitory concentration.

[17] = tested on: Colony LP1; assay: Antibiotic susceptibility test; format: cell-based, Lactiplantibacillus Plantarum
Text: as §10

[18] = tested on: Colony LP2; assay: Antibiotic susceptibility test; format: cell-based, Lactiplantibacillus Plantarum; details: 96-well, 37 C 24 h, OD600
Text: as §10

[19] = tested on: Colony LP19; assay: Antibiotic susceptibility test; format: cell-based, Lactiplantibacillus Plantarum
Text: as §10

[20] = tested on: Colony PTA22; assay: Antibiotic susceptibility test; format: cell-based, Lactiplantibacillus Plantarum
Text: as §10

[21] = tested on: Salmonella enterica; assay: Minimum inhibitory concentration and minimum bacterial concentration; format: cell-based
Procedure: Finally, 100 μL CFSs of the next three concentrations below MIC were taken to be plated on nutrient agar and then cultured at 37° C. for 48-72 hours. The concentrations of the CFSs that no colonies grown on nutrient agar were determined to be the minimum bacterial concentration (MBCs).

[22] = plated on nutrient agar 48-72 h

Question: With `NC[C@H]1O[C@H](O[C@H]2[C@H](O)[C@@H](O[C@H]3O[C@H](CO)[C@@H](O)[C@H](N)[C@H]3O)[C@H](N)C[C@@H]2N)[C@H](O)[C@@H](O)[C@@H]1O` [Kanamycin] as the compound, how does the “Inhibitory zone, Escherichia coli (ETEC)” value [1] read?
Answer: 17 mm

Question: What about the “Inhibitory zone, Salmonella Enterica” value [2] of the same compound?
Answer: 16 mm

Question: And the “Inhibitory zone, Pseudomonas Aeruginosa” value [3]?
Answer: 20 mm

Question: What about the “Inhibitory zone, Staphylococcus Aureus” value [4] of the same compound?
Answer: 23 mm

Question: What about the “Inhibitory zone, Bacillus Cereus” value [5] of the same compound?
Answer: 20 mm

Question: And the “Inhibitory zone, Shigella Sonnei” value [6]?
Answer: 20 mm

Question: And the “Inhibitory zone, Streptococcus Pneumoniae” value [7]?
Answer: 20 mm

Question: And the “Inhibitory zone, Klebsiella Pneumoniae” value [8]?
Answer: 20 mm

Question: And the MIC ([9]; 37 C 24 h, OD600)?
Answer: 64 µg/mL (≈ 132 µM)

Question: And the MBC [9, 22]?
Answer: 128 µg/mL (≈ 264 µM)

Question: And the MIC ([10]; 37 C 24 h, OD600)?
Answer: 8 µg/mL (≈ 16.5 µM)

Question: And the MBC [10, 22]?
Answer: 16 µg/mL (≈ 33 µM)

Question: And the MIC ([11]; 37 C 24 h, OD600)?
Answer: 4 µg/mL (≈ 8.26 µM)

Question: What about the MBC [11, 22] of the same compound?
Answer: 8 µg/mL (≈ 16.5 µM)

Question: And the MIC ([12]; 37 C 24 h, OD600)?
Answer: 256 µg/mL (≈ 528 µM)

Question: What about the MBC [12, 22] of the same compound?
Answer: > 256 µg/mL

Question: And the MIC ([13]; 37 C 24 h, OD600)?
Answer: 16 µg/mL (≈ 33 µM)

Question: And the MBC [13, 22]?
Answer: 64 µg/mL (≈ 132 µM)

Question: And the MIC ([14]; 37 C 24 h, OD600)?
Answer: 8 µg/mL (≈ 16.5 µM)

Question: And the MBC [14, 22]?
Answer: 16 µg/mL (≈ 33 µM)

Question: And the MIC ([15]; 37 C 24 h, OD600)?
Answer: 32 µg/mL (≈ 66 µM)

Question: And the MBC [15, 22]?
Answer: 64 µg/mL (≈ 132 µM)

Question: What about the “Minimum inhibitory concentration of the antibiotic to LP5” value ([16]; 96-well, 37 C 24 h, OD600) of the same compound?
Answer: >256 µg/mL

Question: What about the MIC ([16]; Lactiplantibacillus plantarum, LP5, 24 h, read-out: Minimum inhibitory concentration of the antibiotic to LP5, 96-well, 37 C 24 h, OD600) of the same compound?
Answer: > 256 µg/mL

Question: And the “Minimum inhibitory concentration of the antibiotic to LP1” value ([17]; 96-well, 37 C 24 h, OD600)?
Answer: >256 µg/mL

Question: What about the MIC ([17]; Lactiplantibacillus plantarum, LP1, 24 h, read-out: Minimum inhibitory concentration of the antibiotic to LP1, 96-well, 37 C 24 h, OD600) of the same compound?
Answer: > 256 µg/mL

Question: What about the “Minimum inhibitory concentration of the antibiotic to LP2” value [18] of the same compound?
Answer: >256 µg/mL

Question: What about the MIC ([18]; Lactiplantibacillus plantarum, LP2, 24 h, read-out: Minimum inhibitory concentration of the antibiotic to LP2) of the same compound?
Answer: > 256 µg/mL

Question: What about the “Minimum inhibitory concentration of the antibiotic to LP19” value ([19]; 96-well, 37 C 24 h, OD600) of the same compound?
Answer: >256 µg/mL

Question: What about the MIC ([19]; Lactiplantibacillus plantarum, LP19, 24 h, read-out: Minimum inhibitory concentration of the antibiotic to LP19, 96-well, 37 C 24 h, OD600) of the same compound?
Answer: > 256 µg/mL

Question: What about the “Minimum inhibitory concentration of the antibiotic to PTA22” value ([20]; 96-well, 37 C 24 h, OD600) of the same compound?
Answer: >256 µg/mL

Question: What about the MIC ([20]; Lactiplantibacillus plantarum, PTA22, 24 h, read-out: Minimum inhibitory concentration of the antibiotic to PTA22, 96-well, 37 C 24 h, OD600) of the same compound?
Answer: > 256 µg/mL

Question: And the MIC ([21]; 24 h, read-out: MIC, Salmonella Enterica)?
Answer: 64 µg/mL (≈ 132 µM)

Question: What about the MBC ([21]; antibiotics, plated on nutrient agar 48-72 h) of the same compound?
Answer: 128 µg/mL (≈ 264 µM)

Source: patent publication US20240390438A1, “PROBIOTICS SEPARATED FROM RABBIT FECES AND FOOD CONTAINING PROBIOTICS” (AGENT Innovation Co., Ltd., priority 2021, published 2024)
